Measured values: the NIST ThermoML archive (doi:10.1016/j.jct.2013.05.051)

Assay: xn = mol fraction of the nth substance listed
Conditions: Liquid, Vibrating tube method

CCCCCCCO [heptan-1-ol] + CCCCCCC
mass density [kg/m3]
Conditions	x1 = 0.1493	x1 = 0.3215	x1 = 0.5226	x1 = 0.6698	x1 = 0.8469	x1 = 1
353.15 K, 80000 kPa	–	741	766.4	785.9	815.2	828.7
353.15 K, 90000 kPa	729.1	746.5	771.7	791.1	820.1	833.5
353.15 K, 100000 kPa	734.4	751.6	776.7	795.9	824.8	837.9
353.15 K, 110000 kPa	739.6	756.6	781.5	800.6	829.3	842.3
353.15 K, 120000 kPa	744.3	761.2	786	804.9	833.4	846.4
353.15 K, 130000 kPa	748.8	765.6	790.2	809	837.5	850.3
353.15 K, 140000 kPa	753.2	769.9	794.6	813.2	841.4	854.3
373.15 K, 100 kPa	–	–	–	–	–	761.9
373.15 K, 1000 kPa	636.8	658.8	688.9	712.2	746.6	762.8
373.15 K, 5000 kPa	643.2	664.6	694.1	716.9	750.7	766.6
373.15 K, 10000 kPa	650.5	671.2	700	722.4	755.5	771.1
373.15 K, 15000 kPa	656.9	677.2	705.5	727.5	760.2	775.5
373.15 K, 20000 kPa	662.9	682.7	710.6	732.2	764.4	779.5
373.15 K, 25000 kPa	668.4	687.9	715.4	736.7	768.6	783.4
373.15 K, 30000 kPa	673.6	692.7	719.9	740.9	772.4	787.1
373.15 K, 35000 kPa	678.4	697.2	724.1	744.9	776	790.6
373.15 K, 40000 kPa	682.8	701.4	728.1	748.7	779.7	794
373.15 K, 45000 kPa	687.2	705.6	732	752.4	783	797.2
